Measured values as given in patent US20250270209A1 (INTERLINE THERAPEUTICS, INC., priority 2022, published 2025).

Tests used:
[1] = target: T1, wild type LRRK2 overexpressed in recombinant HEK-293T cells (Homo sapiens, UniProt Q5S007); experiment: pS935 LRRK2 Cell Assay (HTRF, phospho-LRRK2 Ser935); format: cell-based; conditions: LRRK2 Inhibition, Table 8, 2 hours compound incubation
T1 construct: host or cells: HEK293T (transient transfection with pCMV-LRRK2 WT plasmid)
Summary of the method: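 HEK-293T cells transiently transfected with wild-type LRRK2 for 24 h, plated overnight, then treated 2 h at 37° C with compound (top 10 μM, 3-fold, 9 doses, duplicates, 0.2% DMSO). Lysates probed overnight at 23° C by sandwich HTRF for pSer935; 665/615 nm ratio read.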

LRRK2 wild type enzyme = LRRK2 wild type enzyme (Homo sapiens, UniProt Q5S007); experiment: Biochemical Assay: LRRK2 TR-FRET (LanthaScreen) kinase assay with LRRKtide substrate; conditions: LRRK2 Inhibition, Table 8
Summary of the method: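 Human wild-type LRRK2 (3 nM) preincubated 15 min with compound (11-point, 3-fold, top 10 μM), then reacted 120 min at 23 °C with 400 nM LRRKtide and 25 μM ATP, pH 8.0. Stopped with EDTA; Tb-anti-pLRRKtide TR-FRET read after 30 min.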

T1 sequence (Q5S007 whole entry): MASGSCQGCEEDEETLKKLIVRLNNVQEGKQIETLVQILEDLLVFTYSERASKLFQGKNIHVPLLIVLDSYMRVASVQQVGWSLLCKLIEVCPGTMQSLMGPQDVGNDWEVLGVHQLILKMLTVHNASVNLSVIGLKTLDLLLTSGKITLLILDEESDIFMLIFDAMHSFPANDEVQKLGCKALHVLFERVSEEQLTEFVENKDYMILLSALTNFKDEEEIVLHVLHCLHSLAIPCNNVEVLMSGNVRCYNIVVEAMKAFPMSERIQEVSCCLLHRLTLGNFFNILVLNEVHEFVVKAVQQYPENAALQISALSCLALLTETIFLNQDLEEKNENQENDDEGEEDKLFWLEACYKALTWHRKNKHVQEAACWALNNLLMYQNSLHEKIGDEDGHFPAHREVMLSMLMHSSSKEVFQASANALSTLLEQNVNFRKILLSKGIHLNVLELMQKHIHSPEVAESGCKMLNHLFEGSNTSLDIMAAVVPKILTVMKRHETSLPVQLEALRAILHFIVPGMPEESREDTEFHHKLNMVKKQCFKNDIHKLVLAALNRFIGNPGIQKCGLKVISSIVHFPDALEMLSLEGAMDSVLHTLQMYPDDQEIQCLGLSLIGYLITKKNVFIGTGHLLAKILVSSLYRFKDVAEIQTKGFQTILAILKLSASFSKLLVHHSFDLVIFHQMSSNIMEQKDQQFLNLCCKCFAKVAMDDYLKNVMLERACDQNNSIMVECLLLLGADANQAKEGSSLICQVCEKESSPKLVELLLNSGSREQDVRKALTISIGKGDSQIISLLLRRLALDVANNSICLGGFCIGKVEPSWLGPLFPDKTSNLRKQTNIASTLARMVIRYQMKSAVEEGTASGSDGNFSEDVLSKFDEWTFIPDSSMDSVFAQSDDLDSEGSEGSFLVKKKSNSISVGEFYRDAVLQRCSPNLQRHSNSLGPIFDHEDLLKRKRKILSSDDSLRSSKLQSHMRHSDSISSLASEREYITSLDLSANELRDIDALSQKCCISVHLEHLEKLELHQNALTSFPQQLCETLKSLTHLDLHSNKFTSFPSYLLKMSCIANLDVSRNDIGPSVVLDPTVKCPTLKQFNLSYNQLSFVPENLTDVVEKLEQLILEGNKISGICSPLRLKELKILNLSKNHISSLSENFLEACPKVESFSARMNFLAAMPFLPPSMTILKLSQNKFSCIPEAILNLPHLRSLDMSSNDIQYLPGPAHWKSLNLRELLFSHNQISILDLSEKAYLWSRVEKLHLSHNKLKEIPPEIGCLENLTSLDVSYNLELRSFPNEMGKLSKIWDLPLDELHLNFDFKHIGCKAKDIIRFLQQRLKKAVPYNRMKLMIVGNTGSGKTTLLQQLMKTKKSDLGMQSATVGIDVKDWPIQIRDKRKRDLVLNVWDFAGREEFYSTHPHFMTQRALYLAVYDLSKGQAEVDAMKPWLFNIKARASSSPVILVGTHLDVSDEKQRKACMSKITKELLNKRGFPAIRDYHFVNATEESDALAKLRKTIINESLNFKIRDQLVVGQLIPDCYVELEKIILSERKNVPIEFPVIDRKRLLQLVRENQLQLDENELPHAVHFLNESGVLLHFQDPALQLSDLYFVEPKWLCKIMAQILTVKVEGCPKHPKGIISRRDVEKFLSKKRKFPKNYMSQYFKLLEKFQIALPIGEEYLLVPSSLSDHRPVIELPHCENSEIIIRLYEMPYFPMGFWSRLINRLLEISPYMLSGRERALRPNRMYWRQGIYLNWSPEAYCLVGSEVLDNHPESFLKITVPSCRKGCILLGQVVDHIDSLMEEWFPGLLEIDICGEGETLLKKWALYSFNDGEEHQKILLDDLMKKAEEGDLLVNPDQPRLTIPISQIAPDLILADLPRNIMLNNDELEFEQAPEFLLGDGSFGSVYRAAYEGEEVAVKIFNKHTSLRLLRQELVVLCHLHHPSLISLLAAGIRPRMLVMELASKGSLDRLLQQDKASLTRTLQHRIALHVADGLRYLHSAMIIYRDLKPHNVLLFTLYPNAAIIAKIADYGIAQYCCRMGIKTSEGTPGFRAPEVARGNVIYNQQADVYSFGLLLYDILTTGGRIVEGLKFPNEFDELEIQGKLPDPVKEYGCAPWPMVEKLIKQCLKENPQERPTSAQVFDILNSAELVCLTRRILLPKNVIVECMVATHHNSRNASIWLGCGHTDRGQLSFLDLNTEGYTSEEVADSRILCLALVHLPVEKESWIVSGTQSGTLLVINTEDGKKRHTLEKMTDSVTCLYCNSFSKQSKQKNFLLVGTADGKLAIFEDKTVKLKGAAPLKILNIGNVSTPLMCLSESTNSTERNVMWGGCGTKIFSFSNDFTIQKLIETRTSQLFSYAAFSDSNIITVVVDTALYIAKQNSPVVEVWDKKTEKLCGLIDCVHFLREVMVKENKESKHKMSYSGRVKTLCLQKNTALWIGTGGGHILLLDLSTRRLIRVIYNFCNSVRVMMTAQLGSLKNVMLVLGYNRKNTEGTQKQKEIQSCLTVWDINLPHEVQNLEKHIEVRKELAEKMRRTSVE
LRRK2 wild type enzyme, sequence (Q5S007 whole entry): as above

Row | SMILES | IC50 [1] [nM] | IC50 (LRRK2 wild type enzyme) [nM]
1 | C[C@@H]1C[C@H](n2c(CC(=O)NCC3CC3)nc3cnc4ccc(C5CC5)cc4c32)CCO1 [Compound 159, 2-{8-cyclopropyl-1-[(2R,4R)-2-methyloxan-4-yl]-1H-imidazo[4,5-c]quinolin-2-yl}-N-(cyclopropylmethyl)acetamide] | 94.1 | 1.65
2 | C[C@@H]1C[C@H](n2c(CC(=O)Nc3cncnc3)nc3cnc4ccc(C#N)cc4c32)CCO1 [Compound 322, N-5-pyrimidinyl{3-[(2R,4R)-2-methyltetrahydro-2H-pyran-4-yl]-12-cyano-3,5,8-triazatricyclo[7.4.0.0^2,6]trideca-1(9),2(6),4,7,10,12-hexaen-4-yl}acetamide] | 32.2 | 1.08
3 | Cc1ccnc(C)c1NC(=O)Cc1nc2cnc3ccc(C#N)cc3c2n1[C@@H]1CCO[C@H](C)C1 [Compound 256, N-(2,4-dimethyl-3-pyridyl){3-[(2R,4R)-2-methyltetrahydro-2H-pyran-4-yl]-12-cyano-3,5,8-triazatricyclo[7.4.0.0^2,6]trideca-1,4,6,8,10,12-hexaen-4-yl}acetamide] | 15.1 | 0.485
4 | C[C@@H]1C[C@H](n2c(CC(=O)Nc3cccnc3CO)nc3cnc4ccc(C#N)cc4c32)CCO1 [Compound 283, N-[2-(hydroxymethyl)-3-pyridyl]{3-[(2R,4R)-2-methyltetrahydro-2H-pyran-4-yl]-12-cyano-3,5,8-triazatricyclo[7.4.0.0^2,6]trideca-1,4,6,8,10,12-hexaen-4-yl}acetamide] | 27.3 | 0.572
5 | Cc1nc2ccc(C#N)cc2c2c1nc(CC(=O)NCC1CC1)n2[C@@H]1CCO[C@H](C)C1 [Compound 364, N-cyclopropylmethyl{3-[(2R,4R)-2-methyltetrahydro-2H-pyran-4-yl]-12-cyano-7-methyl-3,5,8-triazatricyclo[7.4.0.0^2,6]trideca-1(9),2(6),4,7,10,12-hexaen-4-yl}acetamide] | 6770 | 186
6 | CCNC(=O)Cc1nc2cnc3ccc(C#N)cc3c2n1[C@@H]1CCO[C@H](C)C1 [Compound 6, 2-{8-cyano-1-[(2R,4R)-2-methyloxan-4-yl]-1H-imidazo[4,5-c]quinolin-2-yl}-N-ethylacetamide] | 48.7 | 0.58
7 | C[C@@H]1C[C@H](n2c(CN3CCC(C(=O)O)C3)nc3cnc4ccc(C#N)cc4c32)CCO1 (stereo partly drawn) [Compound 77, 1-({8-cyano-1-[(2R,4R)-2-methyloxan-4-yl]-1H-imidazo[4,5-c]quinolin-2-yl}methyl)pyrrolidine-3-carboxylic acid] | 5160 | 34.2
8 | C[C@@H]1C[C@H](n2c(C3CC(=O)N(c4ccn(C)n4)C3)nc3cnc4ccc(C#N)cc4c32)CCO1 (stereo partly drawn) [Compound 100, 2-[1-(1-methyl-1H-pyrazol-3-yl)-5-oxopyrrolidin-3-yl]-1-[(2R,4R)-2-methyloxan-4-yl]-1H-imidazo[4,5-c]quinoline-8-carbonitrile] | 143 | 2.14
9 | C[C@@H]1C[C@H](n2c([C@H]3CNC(=O)C3)nc3cnc4ccc(C#N)cc4c32)CCO1 [Compound 72, 1-[(2R,4R)-2-methyloxan-4-yl]-2-[(3R)-5-oxopyrrolidin-3-yl]-1H-imidazo[4,5-c]quinoline-8-carbonitrile] | 3600 | 1.86
10 | C[C@@H]1C[C@H](n2c(CC(=O)NC3(C)CC3)nc3cnc4ccc(C#N)cc4c32)CCO1 [Compound 328, N-1-methylcyclopropyl{3-[(2R,4R)-2-methyltetrahydro-2H-pyran-4-yl]-12-cyano-3,5,8-triazatricyclo[7.4.0.0^2,6]trideca-1(9),2(6),4,7,10,12-hexaen-4-yl}acetamide] | 54.7 | 1.86
11 | C[C@@H]1C[C@H](n2c(CC(=O)Nc3cccnc3O)nc3cnc4ccc(C#N)cc4c32)CCO1 [Compound 218, N-(2-hydroxy-3-pyridyl){3-[(2R,4R)-2-methyltetrahydro-2H-pyran-4-yl]-12-cyano-3,5,8-triazatricyclo[7.4.0.0^2,6]trideca-1,4,6,8,10,12-hexaen-4-yl}acetamide] | 83.5 | 0.45
12 | C[C@@H]1C[C@H](n2c(CC(=O)Nc3cc(C4CCC4)no3)nc3cnc4ccc(C#N)cc4c32)CCO1 [Compound 340, N-(3-cyclobutyl-5-isoxazolyl){3-[(2R,4R)-2-methyltetrahydro-2H-pyran-4-yl]-12-cyano-3,5,8-triazatricyclo[7.4.0.0^2,6]trideca-1(9),2(6),4,7,10,12-hexaen-4-yl}acetamide] | 15.7 | 1.53
13 | C[C@@H]1C[C@H](n2c(CC(=O)Nc3cnn(C4CCC4)c3)nc3cnc4ccc(C#N)cc4c32)CCO1 [Compound 305, N-(1-cyclobutyl-4-pyrazolyl){3-[(2R,4R)-2-methyltetrahydro-2H-pyran-4-yl]-12-cyano-3,5,8-triazatricyclo[7.4.0.0^2,6]trideca-1,4,6,8,10,12-hexaen-4-yl}acetamide] | 12.3 | 0.633
14 | Cc1ccc(NC(=O)Cc2nc3cnc4ccc(C#N)cc4c3n2[C@@H]2CCO[C@H](C)C2)c(C)n1 [Compound 270, N-(2,6-dimethyl-3-pyridyl){3-[(2R,4R)-2-methyltetrahydro-2H-pyran-4-yl]-12-cyano-3,5,8-triazatricyclo[7.4.0.0^2,6]trideca-1,4,6,8,10,12-hexaen-4-yl}acetamide] | 7.36 | 0.504
15 | COc1ncnc(C)c1NC(=O)Cc1nc2cnc3ccc(C#N)cc3c2n1[C@@H]1CCO[C@H](C)C1 [Compound 204, N-(4-methoxy-6-methyl-5-pyrimidinyl){3-[(2R,4R)-2-methyltetrahydro-2H-pyran-4-yl]-12-cyano-3,5,8-triazatricyclo[7.4.0.0^2,6]trideca-1,4,6,8,10,12-hexaen-4-yl}acetamide] | 6.64 | 0.466
16 | C[C@@H]1C[C@H](n2c(CC(=O)Nc3ccn(CCO)n3)nc3cnc4ccc(C#N)cc4c32)CCO1 [Compound 175, 2-{8-cyano-1-[(2R,4R)-2-methyloxan-4-yl]-1H-imidazo[4,5-c]quinolin-2-yl}-N-[1-(2-hydroxyethyl)-1H-pyrazol-3-yl]acetamide] | 132 | 0.32
17 | C[C@@H]1C[C@H](n2c(CC(=O)N[C@@H]3C[C@H]3c3cccnc3)nc3cnc4ccc(C#N)cc4c32)CCO1 [Compound 365, N-[(1R,2S)-2-(3-pyridyl)cyclopropyl]{3-[(2R,4R)-2-methyltetrahydro-2H-pyran-4-yl]-12-cyano-3,5,8-triazatricyclo[7.4.0.0^2,6]trideca-1(13),2(6),4,7,9,11-hexaen-4-yl}acetamide] | 23.3 | 0.536
18 | C[C@@H]1C[C@H](n2c(CC(=O)NCC3CC3)nc3cnc4ccc(Cl)cc4c32)CCO1 [Compound 107, 2-{8-chloro-1-[(2R,4R)-2-methyloxan-4-yl]-1H-imidazo[4,5-c]quinolin-2-yl}-N-(cyclopropylmethyl)acetamide] | 10.9 | 0.354
19 | Cc1oncc1CNC(=O)Cc1nc2cnc3ccc(C#N)cc3c2n1[C@@H]1CCO[C@H](C)C1 [Compound 179, 2-(8-cyano-1-((2R,4R)-2-methyltetrahydro-2H-pyran-4-yl)-1H-imidazo[4,5-c]quinolin-2-yl)-N-((5-methylisoxazol-4-yl)methyl)acetamide] | 17.1 | 0.337
20 | COc1nn(C)cc1NC(=O)Cc1nc2cnc3ccc(C#N)cc3c2n1[C@@H]1CCO[C@H](C)C1 [Compound 229, N-(3-methoxy-1-methyl-4-pyrazolyl){3-[(2R,4R)-2-methyltetrahydro-2H-pyran-4-yl]-12-cyano-3,5,8-triazatricyclo[7.4.0.0^2,6]trideca-1,4,6,8,10,12-hexaen-4-yl}acetamide] | 6.62 | 0.316
21 | C[C@@H]1C[C@H](n2c(CC(=O)Nc3ccn(C4CC4)n3)nc3cnc4ccc(C#N)cc4c32)CCO1 [Compound 354, N-(1-cyclopropyl-3-pyrazolyl){3-[(2R,4R)-2-methyltetrahydro-2H-pyran-4-yl]-12-cyano-3,5,8-triazatricyclo[7.4.0.0^2,6]trideca-1(9),2(6),4,7,10,12-hexaen-4-yl}acetamide] | 14.8 | 0.447
22 | Cc1ncnc(C)c1NC(=O)Cc1nc2cnc3ccc(C#N)cc3c2n1[C@@H]1CCO[C@H](C)C1 [Compound 260, N-(4,6-dimethyl-5-pyrimidinyl){3-[(2R,4R)-2-methyltetrahydro-2pyran-4-yl]-12-cyano-3,5,8-triazatricyclo[7.4.0.0^2,6]trideca-1,4,6,8,10,12-hexaen-4-yl}acetamide] | 30.4 | 0.395
23 | C[C@@H]1C[C@H](n2c([C@H]3CN(CC4CC4)C(=O)O3)nc3cnc4ccc(C#N)cc4c32)CCO1 [Compound 36, 2-[(5R)-3-(cyclopropylmethyl)-2-oxo-1,3-oxazolidin-5-yl]-1-[(2R,4R)-2-methyloxan-4-yl]-1H-imidazo[4,5-c]quinoline-8-carbonitrile] | 63.8 | 1.16
24 | COc1cc(F)c(NC(=O)Cc2nc3cnc4ccc(C#N)cc4c3n2[C@@H]2CCO[C@H](C)C2)cn1 [Compound 235, N-(4-fluoro-6-methoxy-3-pyridyl){3-[(2R,4R)-2-methyltetrahydro-2H-pyran-4-yl]-12-cyano-3,5,8-triazatricyclo[7.4.0.0^2,6]trideca-1,4,6,8,10,12-hexaen-4-yl}acetamide] | 9.9 | 0.458
25 | C[C@@H]1C[C@H](n2c(C3CC(=O)N(Cc4cccnc4)C3)nc3cnc4ccc(C#N)cc4c32)CCO1 (mixture of isomers) [Compound 57, 1-[(2R,4R)-2-methyloxan-4-yl]-2-[(3RS)-5-oxo-1-[(pyridin-3-yl)methyl]pyrrolidin-3-yl]-1H-imidazo[4,5-c]quinoline-8-carbonitrile] | 216 | 0.958
